Reference: patent EP0518216A2, “N-/Arylethyl/-N-alkyl-2-(1-pyrrolidinyl)ethylamine derivatives for CNS disorders” (G.D. Searle & Co., priority 1991, dated 1992)

Tests used:
PCP receptors = experiment: Phencyclidine (PCP) receptor binding assay with [3H]TCP; settings: guinea pig brain; determined in independent experiments
[1] = tested on: dynorphin A induced spinal cord injury model; experiment: Dynorphin A induced spinal cord injury model (hindlimb motor function); assay type: in vivo, rat
From the text: Neuroprotective properties of BD-1008 and selected compounds of this invention have been evaluated in the dynorphin A induced spinal cord injury model. Along with several other neuropeptides, dynorphin A has potent vasoconstrictory effects on the vasculature of the rat brain and spinal cord; thus it provides a convenient, reproducible pharmacological means to induce and study ischemic central nervous system injury. Furthermore, localized effects of this peptide on the lumbosacral spinal cord following L4-L5 intervertebral injection allows for simple and straightforward neurological appraisals through assessment of hindlimb motor function.

Sigma receptors = experiment: Sigma receptor binding assay with [3H]-(+)-3-PPP, crude P2 membranes; settings: guinea pig brain membranes; determined in independent experiments
Protocol: Sigma receptors were labeled with [^3H]-(+)-3-PPP (109 Ci/mmol).
For most compounds in the study, a concentration range of 0.0005-100 nM was appropriate. […] Twelve concentrations of unlabelled ligand were incubated with 3 nM [^3H](+)-3-PPP as described in Methods. The CDATA iterative curve fitting program (EMF Software, Inc., Baltimore, MD) was used to determine IC50 values. Values are the average of 2-4 experiments, ±SEM. Each experiment was carried out in duplicate. The Cheng-Prussoff equation^27 was then used to convert IC50 values to apparent Ki values.

c1csc(C2(N3CCCCC3)CCCCC2)c1 [[^3H]TCP] was tested, and the Kd (PCP receptors) was 25 nM.

With CN(CCc1ccc(Cl)c(Cl)c1)CCN1CCCC1 [BD-1008] the “impact on the primary vascular responses to dynorphin A” value ([1]; dynorphin A-induced reduction in lumbosacral blood flow) was “without any measurable impact” and the “neurological recovery from the flaccid hindlimb paralysis” value ([1]; paralysis from a 20 nanomole dose of dynorphin A, L4-L5 intervertebral injection) was “significantly improves neurological recovery”.

In the case of CCCN1CCC[C@H](c2cccc(O)c2)C1 [[^3H]-(+)-3-PPP], the Kd (Sigma receptors) is reported as 27.4 nM.
